In patent publication US8952024B2, “Herbicidal pyrimidone derivatives” (E I du Pont de Nemours and Company, priority 2009, dated 2015):

Legend:
Type in all cases: in vivo
[1] = test system: rice (Oryza sativa); assay: Test B flooded paddy test; settings: for Plant response rating, Flood, Rice: 250 g ai/ha, flooded paddy test, visual rating on 0 to 100 scale (0 no effect, 100 complete control) after 13 to 15 days; for Plant response rating, Rice: Flood (flooded paddy test), 13 to 15 days; for Rice plant response rating: Flood, 31 g ai/ha, scale 0 to 100 (0 no effect, 100 complete control)
Text: (§1) Plant species in the flooded paddy test consisted of rice (Oryza sativa), umbrella sedge (Cyperus difformis), ducksalad (Heteranthera limosa) and barnyardgrass (Echinochloa crus-galli) grown to the 2-leaf stage for testing. At the time of treatment, test pots were flooded with water to 3 cm above the soil surface, treated by application of test compounds directly to the paddy water, and then maintained at that water depth for the duration of the test.
(§2) Treated plants and controls were maintained in a greenhouse for 13 to 15 days, after which time all treated plants were visually evaluated and compared to controls. Plant response ratings, summarized in Table B, are based on a scale of 0 to 100 where 0 is no effect and 100 is complete control. A dash (-) response means no test result.

[2] = test system: ducksalad (Heteranthera limosa); assay: Test B flooded paddy test; settings: for Plant response rating, Flood, Ducksalad: 250 g ai/ha, flooded paddy test, visual rating on 0 to 100 scale (0 no effect, 100 complete control) after 13 to 15 days; for Plant response rating, Ducksalad: Flood (flooded paddy test), 13 to 15 days; for Ducksalad plant response rating: Flood, 31 g ai/ha, scale 0 to 100 (0 no effect, 100 complete control)
Text: as §1, §2

[3] = test system: barnyardgrass (Echinochloa crus-galli); assay: Test B flooded paddy test; settings: for Plant response rating, Flood, Barnyardgrass: 250 g ai/ha, flooded paddy test, visual rating on 0 to 100 scale (0 no effect, 100 complete control) after 13 to 15 days; for Plant response rating, Barnyardgrass: Flood (flooded paddy test), 13 to 15 days; for Barnyardgrass plant response rating: Flood, 31 g ai/ha, scale 0 to 100 (0 no effect, 100 complete control)
Text: as §1, §2

[4] = test system: umbrella sedge (Cyperus difformis); assay: Test B flooded paddy test; settings: for Plant response rating, Flood, Sedge, Umbrella: 250 g ai/ha, flooded paddy test, visual rating on 0 to 100 scale (0 no effect, 100 complete control) after 13 to 15 days; for Plant response rating, Sedge, Umbrella: Flood (flooded paddy test), 13 to 15 days; for Sedge, Umbrella plant response rating: Flood, 31 g ai/ha, scale 0 to 100 (0 no effect, 100 complete control)
Text: as §1, §2

[5] = test system: wheat (Triticum aestivum); assay: Test A pre-/postemergence plant response
Text: (§3) Seeds of barnyardgrass (Echinochloa crus-galli), large crabgrass (Digitaria sanguinalis), giant foxtail (Setaria faberii), morningglory (Ipomoea spp.), pigweed (Amaranthus retroflexus), velvetleaf (Abutilon theophrasti), wheat (Triticum aestivum) and corn (Zea mays) were planted into a blend of loam soil and sand and treated preemergence with a directed soil spray using test chemicals formulated in a non-phytotoxic solvent mixture which included a surfactant. At the same time these species were also treated with postemergence applications of test compounds formulated in the same manner.
(§4) Plants ranged in height from two to ten cm and were in the one- to two-leaf stage for the postemergence treatment. Treated plants and untreated controls were maintained in a greenhouse for approximately ten days, after which time all treated plants were compared to untreated controls and visually evaluated for injury. Plant response ratings, summarized in Table A, are based on a 0 to 100 scale where 0 is no effect and 100 is complete control. A dash (-) response means no test result.

[6] = test system: barnyardgrass (Echinochloa crus-galli); assay: Test A pre-/postemergence plant response
Text: as §3, §4

[7] = test system: pigweed (Amaranthus retroflexus); assay: Test A pre-/postemergence plant response
Text: as §3, §4

[8] = test system: morningglory (Ipomoea spp.); assay: Test A pre-/postemergence plant response
Text: as §3, §4

[9] = test system: velvetleaf (Abutilon theophrasti); assay: Test A pre-/postemergence plant response
Text: as §3, §4

[10] = test system: large crabgrass (Digitaria sanguinalis); assay: Test A pre-/postemergence plant response
Text: as §3, §4

[11] = test system: giant foxtail (Setaria faberii); assay: Test A pre-/postemergence plant response
Text: as §3, §4

[12] = test system: corn (Zea mays); assay: Test A pre-/postemergence plant response
Text: as §3, §4

[13] = 62 g ai/ha, scale of 0 to 100 where 0 is no effect and 100 is complete control
[14] = 125 g ai/ha, scale 0 to 100, 0 is no effect, 100 is complete control
[15] = Postemergence, 125 g ai/ha, 0 to 100 scale where 0 is no effect and 100 is complete control
[16] = Postemergence, 500 g ai/ha, 0 to 100 scale, 0 = no effect, 100 = complete control, approx. ten days
[17] = Preemergence, 125 g ai/ha, 0 to 100 scale, 0 = no effect, 100 = complete control
[18] = Preemergence, 500 g ai/ha, visual injury, 0 to 100 scale (0 no effect, 100 complete control), approx. ten days

`CCCc1ncc(C(=O)C2=C(O)CCCC2=O)c(=O)n1Cc1cccc(OC)c1` [Compound 104] was tested, and the “Plant response rating, Flood, Rice” value [1] was 0, the “Plant response rating, Rice” value [1, 13] was 0 and the “Plant response rating, Rice” value [1, 14] was 0. The “Rice plant response rating” value [1] was 0, the “Plant response rating, Flood, Ducksalad” value [2] was 0 and the “Plant response rating, Ducksalad” value [2, 13] was 0. The “Plant response rating, Ducksalad” value [2, 14] was 0, the “Ducksalad plant response rating” value [2] was 0 and the “Plant response rating, Flood, Barnyardgrass” value [3] was 0. The “Plant response rating, Barnyardgrass” value [3, 13] was 0, the “Plant response rating, Barnyardgrass” value [3, 14] was 0 and the “Barnyardgrass plant response rating” value [3] was 0. For the same compound, the “Plant response rating, Flood, Sedge, Umbrella” value [4] was 0, the “Plant response rating, Sedge, Umbrella” value [4, 13] was 0 and the “Plant response rating, Sedge, Umbrella” value [4, 14] was 0. The “Sedge, Umbrella plant response rating” value [4] was 0, the “Plant response rating, Wheat” value [5, 15] was 0 and the “Plant response rating, Wheat” value [5, 16] was 0. The “Plant response rating, Wheat” value [5, 17] was 0, the “Plant response rating, Wheat” value [5, 18] was 0 and the “Plant response rating, Barnyardgrass” value [6, 15] was 10. For the same compound, the “Plant response rating, Barnyardgrass” value [6, 16] was 40, the “Plant response rating, Barnyardgrass” value [6, 17] was 0 and the “Plant response rating, Barnyardgrass” value [6, 18] was 0. The “Plant response rating, Pigweed” value [7, 15] was 100, the “Plant response rating, Pigweed” value [7, 16] was 100 and the “Plant response rating, Pigweed” value [7, 17] was 80. The “Plant response rating, Pigweed” value [7, 18] was 90, the “Plant response rating, Morningglory” value [8, 15] was 70 and the “Plant response rating, Morningglory” value [8, 16] was 100. For the same compound, the “Plant response rating, Morningglory” value [8, 17] was 0, the “Plant response rating, Morningglory” value [8, 18] was 0 and the “Plant response rating, Velvetleaf” value [9, 15] was 70. The “Plant response rating, Velvetleaf” value [9, 16] was 80, the “Plant response rating, Velvetleaf” value [9, 17] was 0 and the “Plant response rating, Velvetleaf” value [9, 18] was 40. The “Plant response rating, Crabgrass, Large” value [10, 15] was 0, the “Plant response rating, Crabgrass, Large” value [10, 16] was 0 and the “Plant response rating, Crabgrass, Large” value [10, 17] was 0. The “Plant response rating, Crabgrass, Large” value [10, 18] was 0, the “Plant response rating, Foxtail, Giant” value [11, 15] was 0 and the “Plant response rating, Foxtail, Giant” value [11, 16] was 0. For the same compound, the “Plant response rating, Foxtail, Giant” value [11, 17] was 0, the “Plant response rating, Foxtail, Giant” value [11, 18] was 0 and the “Plant response rating, Corn” value [12, 15] was 0. For the same compound, the “Plant response rating, Corn” value [12, 16] was 0, the “Plant response rating, Corn” value [12, 17] was 0 and the “Plant response rating, Corn” value [12, 18] was 0.

`CCCc1ncc(C(=O)C2=C(O)CCCC2=O)c(=O)n1Cc1cccc(OC(F)(F)F)c1` [Compound 105] was tested, and the “Plant response rating, Flood, Rice” value [1] was 0, the “Plant response rating, Rice” value [1, 13] was 0 and the “Plant response rating, Rice” value [1, 14] was 0. The “Rice plant response rating” value [1] was 0, the “Plant response rating, Flood, Ducksalad” value [2] was 0 and the “Plant response rating, Ducksalad” value [2, 13] was 0. The “Plant response rating, Ducksalad” value [2, 14] was 0, the “Ducksalad plant response rating” value [2] was 0 and the “Plant response rating, Flood, Barnyardgrass” value [3] was 0. The “Plant response rating, Barnyardgrass” value [3, 13] was 0, the “Plant response rating, Barnyardgrass” value [3, 14] was 0 and the “Barnyardgrass plant response rating” value [3] was 0. The “Plant response rating, Flood, Sedge, Umbrella” value [4] was 0, the “Plant response rating, Sedge, Umbrella” value [4, 13] was 0 and the “Plant response rating, Sedge, Umbrella” value [4, 14] was 0. For the same compound, the “Sedge, Umbrella plant response rating” value [4] was 0, the “Plant response rating, Wheat” value [5, 15] was 0 and the “Plant response rating, Wheat” value [5, 16] was 0. The “Plant response rating, Wheat” value [5, 17] was 0, the “Plant response rating, Wheat” value [5, 18] was 0 and the “Plant response rating, Barnyardgrass” value [6, 15] was 20. The “Plant response rating, Barnyardgrass” value [6, 16] was 50, the “Plant response rating, Barnyardgrass” value [6, 17] was 0 and the “Plant response rating, Barnyardgrass” value [6, 18] was 0. The “Plant response rating, Pigweed” value [7, 15] was 90, the “Plant response rating, Pigweed” value [7, 16] was 100 and the “Plant response rating, Pigweed” value [7, 17] was 80. The “Plant response rating, Pigweed” value [7, 18] was 90, the “Plant response rating, Morningglory” value [8, 15] was 10 and the “Plant response rating, Morningglory” value [8, 16] was 80. The “Plant response rating, Morningglory” value [8, 17] was 0, the “Plant response rating, Velvetleaf” value [9, 15] was 100 and the “Plant response rating, Velvetleaf” value [9, 16] was 100. For the same compound, the “Plant response rating, Velvetleaf” value [9, 17] was 0, the “Plant response rating, Velvetleaf” value [9, 18] was 70 and the “Plant response rating, Crabgrass, Large” value [10, 15] was 20. The “Plant response rating, Crabgrass, Large” value [10, 16] was 70, the “Plant response rating, Crabgrass, Large” value [10, 17] was 30 and the “Plant response rating, Crabgrass, Large” value [10, 18] was 50. For the same compound, the “Plant response rating, Foxtail, Giant” value [11, 15] was 0, the “Plant response rating, Foxtail, Giant” value [11, 16] was 20 and the “Plant response rating, Foxtail, Giant” value [11, 17] was 30. For the same compound, the “Plant response rating, Foxtail, Giant” value [11, 18] was 50, the “Plant response rating, Corn” value [12, 15] was 0 and the “Plant response rating, Corn” value [12, 16] was 10. The “Plant response rating, Corn” value [12, 17] was 0 and the “Plant response rating, Corn” value [12, 18] was 0.
